Values of other authors as cited in patent publication US20080221048A1, “Lyophilized azithromycin formulation” (APP Pharmaceuticals, LLC., priority 2004, published 2008).
Read-outs that look alike come from different tables or passages of the source.

Conditions: for time diluted azithromycin for injection is stable: diluted to 1.0-2.0 mg/mL

time diluted azithromycin for injection is stable (at or below room temperature (30° C. or 86° F.)): 24 h
time diluted azithromycin for injection is stable (stored under refrigeration (5° C. or 41° F.)): 170 h
time reconstituted azithromycin solution is stable (reconstituted solution (about 100 mg/mL), stored below 30° C. or 86° F.): 24 h
SMILES: CC[C@H]1OC(=O)[C@H](C)[C@@H](O[C@H]2C[C@@](C)(OC)[C@@H](O)[C@H](C)O2)[C@H](C)[C@@H](OC2O[C@H](C)C[C@H](N(C)C)[C@H]2O)C(C)(O)C[C@@H](C)CN(C)[C@H](C)[C@@H](O)[C@]1(C)O (stereo in doubt) [azithromycin, (2R,3S,4R,5R,8R,10R,11R,12S,13S,14R)-13-[(2,6-dideoxy-3-C-methyl-3-O-methyl-α-L-ribo-hexo-pyranosyl)oxy]-2-ethyl-3,4,10-trihydroxy-3,5,6,8,10,12,14-heptamethyl-11-[[3,4,6-trideoxy-3-(dimethylamino)-β-D-xylo-hexopyranosyl]oxy]-1-oxa-6-azacyclopentadecan-15-one]
